The values below come from PubChem BioAssay AID1259407 (Chemical Carcinogenesis Research Information System (CCRIS), 2018).

Activity calls are given as the source filed them. The rule behind the calls is not given here.

The subject of the data set is CCRIS mutagenicity, Ames/micronucleus/aberration tests. Description: CCRIS mutagenicity studies.
The mark [1] stands for this setting: Test System: AMES SALMONELLA TYPHIMURIUM, Strain/Indicator: TA100, Metabolic Activation: NONE, Method: STANDARD PLATE.
The mark [2] stands for this setting: Test System: AMES SALMONELLA TYPHIMURIUM, Strain/Indicator: TA98, Metabolic Activation: NONE, Method: PREINCUBATION
[3] abbreviates: Test System: AMES SALMONELLA TYPHIMURIUM, Strain/Indicator: TA100, Metabolic Activation: NONE, Method: PREINCUBATION
Where [4] appears, read: Test System: AMES SALMONELLA TYPHIMURIUM, Strain/Indicator: TA104, Metabolic Activation: NONE, Method: PREINCUBATION

As to `Nc1c(O)cccc1[N+](=O)[O-]`, the mutagenic call was “inactive; negative” (Test System: AMES SALMONELLA TYPHIMURIUM, Strain/Indicator: TA98, Metabolic Activation: NONE, Method: STANDARD PLATE); “inactive; negative” (Test System: AMES SALMONELLA TYPHIMURIUM, Strain/Indicator: TA98, Metabolic Activation: RAT, LIVER, S-9, AROCLOR 1254, Method: STANDARD PLATE); “inactive; negative” under setting [1]; “inactive; negative” (Test System: AMES SALMONELLA TYPHIMURIUM, Strain/Indicator: TA100, Metabolic Activation: RAT, LIVER, S-9, AROCLOR 1254, Method: STANDARD PLATE); “inactive; negative” (Test System: AMES SALMONELLA TYPHIMURIUM, Strain/Indicator: TA1535, Metabolic Activation: NONE, Method: STANDARD PLATE); “inactive; negative” (Test System: AMES SALMONELLA TYPHIMURIUM, Strain/Indicator: TA1535, Metabolic Activation: RAT, LIVER, S-9, AROCLOR 1254, Method: STANDARD PLATE). Further, the mutagenic call is, setting by setting: (Test System: AMES SALMONELLA TYPHIMURIUM, Strain/Indicator: TA1537, Metabolic Activation: NONE, Method: STANDARD PLATE) “inactive; negative”; (Test System: AMES SALMONELLA TYPHIMURIUM, Strain/Indicator: TA1537, Metabolic Activation: RAT, LIVER, S-9, AROCLOR 1254, Method: STANDARD PLATE) “inactive; negative”; (Test System: AMES SALMONELLA TYPHIMURIUM, Strain/Indicator: TA1538, Metabolic Activation: NONE, Method: STANDARD PLATE) “inactive; negative”; (Test System: AMES SALMONELLA TYPHIMURIUM, Strain/Indicator: TA1538, Metabolic Activation: RAT, LIVER, S-9, AROCLOR 1254, Method: STANDARD PLATE) “inactive; negative”.
On to `CC(Br)(CBr)COP(=O)(OCC(C)(Br)CBr)OCC(C)(Br)CBr` (centres undefined), for which the mutagenic call was “inactive; negative” (Test System: AMES SALMONELLA TYPHIMURIUM, Strain/Indicator: TA100, Metabolic Activation: RAT, LIVER, MICROSOMES, PHENOBARBITAL, Method: PREINCUBATION) and “inactive; negative” (Test System: AMES SALMONELLA TYPHIMURIUM, Strain/Indicator: TA100, Metabolic Activation: RAT, LIVER, MICROSOMES, Method: PREINCUBATION).
`CC(C)(C)OOC(=O)c1ccccc1`: the mutagenic call by setting is: (Test System: AMES SALMONELLA TYPHIMURIUM, Strain/Indicator: TA98, Metabolic Activation: HAMSTER, LIVER, S-9, AROCLOR 1254 (10%), Method: PREINCUBATION) “active; positive”; under setting [2], “active; positive”; (Test System: AMES SALMONELLA TYPHIMURIUM, Strain/Indicator: TA98, Metabolic Activation: RAT, LIVER, S-9, AROCLOR 1254 (10%), Method: PREINCUBATION) “active; positive”; (Test System: AMES SALMONELLA TYPHIMURIUM, Strain/Indicator: TA100, Metabolic Activation: HAMSTER, LIVER, S-9, AROCLOR 1254 (10%), Method: PREINCUBATION) “active; positive”; under setting [3], “inactive; negative”; (Test System: AMES SALMONELLA TYPHIMURIUM, Strain/Indicator: TA100, Metabolic Activation: RAT, LIVER, S-9, AROCLOR 1254 (10%), Method: PREINCUBATION) “inactive; negative”. In addition, the mutagenic call is, setting by setting: (Test System: AMES SALMONELLA TYPHIMURIUM, Strain/Indicator: TA1535, Metabolic Activation: HAMSTER, LIVER, S-9, AROCLOR 1254 (10%), Method: PREINCUBATION) “inactive; negative”; (Test System: AMES SALMONELLA TYPHIMURIUM, Strain/Indicator: TA1535, Metabolic Activation: NONE, Method: PREINCUBATION) “inactive; negative”; (Test System: AMES SALMONELLA TYPHIMURIUM, Strain/Indicator: TA1535, Metabolic Activation: RAT, LIVER, S-9, AROCLOR 1254 (10%), Method: PREINCUBATION) “inactive; negative”; (Test System: AMES SALMONELLA TYPHIMURIUM, Strain/Indicator: TA1537, Metabolic Activation: HAMSTER, LIVER, S-9, AROCLOR 1254 (10%), Method: PREINCUBATION) “active; positive”; (Test System: AMES SALMONELLA TYPHIMURIUM, Strain/Indicator: TA1537, Metabolic Activation: NONE, Method: PREINCUBATION) “active; positive”; (Test System: AMES SALMONELLA TYPHIMURIUM, Strain/Indicator: TA1537, Metabolic Activation: RAT, LIVER, S-9, AROCLOR 1254 (10%), Method: PREINCUBATION) “active; positive”.
As to `O=CC(=C(Cl)Cl)C(Cl)Cl`, the mutagenic call under setting [1] is “active; positive”.
Consider `CC(=O)C=O`, for which the mutagenic call was “active; positive” under setting [2]; “inactive; negative” (Test System: AMES SALMONELLA TYPHIMURIUM, Strain/Indicator: TA98, Metabolic Activation: RAT, LIVER, S-9, AROCLOR 1254, Method: PREINCUBATION); “active; positive” under setting [3]; “active; positive” under setting [1]; “active; positive” (Test System: AMES SALMONELLA TYPHIMURIUM, Strain/Indicator: TA100, Metabolic Activation: RAT, LIVER, S-9, AROCLOR 1254, Method: PREINCUBATION); “active; positive” (Test System: AMES SALMONELLA TYPHIMURIUM, Strain/Indicator: TA102, Metabolic Activation: NONE, Method: PREINCUBATION). Besides, the mutagenic call by setting is: (Test System: AMES SALMONELLA TYPHIMURIUM, Strain/Indicator: TA102, Metabolic Activation: RAT, LIVER, S-9, AROCLOR 1254, Method: PREINCUBATION) “active; positive”; (Test System: AMES SALMONELLA TYPHIMURIUM, Strain/Indicator: TA102, Metabolic Activation: RAT, LIVER, S-9, PHENOBARBITAL AND BETA-NAPHTHOFLAVONE, Method: PREINCUBATION) “active; positive”; under setting [4], “active; positive”; (Test System: AMES SALMONELLA TYPHIMURIUM, Strain/Indicator: TA104, Metabolic Activation: RAT, LIVER, S-9, PHENOBARBITAL AND BETA-NAPHTHOFLAVONE, Method: PREINCUBATION) “active; positive”; (Test System: AMES SALMONELLA TYPHIMURIUM, Strain/Indicator: TA2638, Metabolic Activation: NONE, Method: PREINCUBATION) “active; positive”; (Test System: AMES SALMONELLA TYPHIMURIUM, Strain/Indicator: TA2659, Metabolic Activation: NONE, Method: PREINCUBATION) “active; positive”. Also, the mutagenic call by setting is: (Test System: CHINESE HAMSTER V-79, Strain/Indicator: V-79/6-THIOGUANINE, Metabolic Activation: NONE, Method: PREINCUBATION) “active; positive”; (Test System: CHINESE HAMSTER V-79, Strain/Indicator: V-79/6-THIOGUANINE, Metabolic Activation: RAT HEPATOCYTES, Method: PREINCUBATION) “active; positive”.
As for `C/C=C(\C)C=O`, the mutagenic call (Test System: MOUSE LYMPHOMA, Strain/Indicator: L5178Y (TK+/TK-), Metabolic Activation: NONE, Method: SUSPENSION/PLATE) is “active; positive. reevaluation of results: inconclusive” and the mutagenic call (Test System: MOUSE LYMPHOMA, Strain/Indicator: L5178Y (TK+/TK-), Metabolic Activation: RAT, LIVER, S-9, AROCLOR 1254, Method: SUSPENSION/PLATE) is “inactive; negative. reevaluation of results: negative”.
`O=C(Cl)CCc1ccccc1`: the mutagenic call was “active; positive” under setting [2]; “active; positive” (Test System: AMES SALMONELLA TYPHIMURIUM, Strain/Indicator: TA98, Metabolic Activation: RAT LIVER S-9, PCB, Method: PREINCUBATION); “active; positive” under setting [3]; “active; positive” (Test System: AMES SALMONELLA TYPHIMURIUM, Strain/Indicator: TA100, Metabolic Activation: RAT LIVER S-9, PCB, Method: PREINCUBATION); “active; positive” under setting [4]; “active; positive” (Test System: AMES SALMONELLA TYPHIMURIUM, Strain/Indicator: TA104, Metabolic Activation: RAT LIVER S-9, PCB, Method: PREINCUBATION). The mutagenic call (Test System: E.COLI, Strain/Indicator: WP2 UVRA, Metabolic Activation: NONE, Method: PREINCUBATION) was “inactive; negative” and the mutagenic call (Test System: E.COLI, Strain/Indicator: WP2 UVRA, Metabolic Activation: RAT LIVER S-9, PCB, Method: PREINCUBATION) was “active; positive”.
